Test results reported in publication PMC2075610 (Biochimica et Biophysica Acta. Molecular Basis of Disease, 2006).
Non-standard residues stand in square brackets, D forms with d. Residues, ends and D or L forms follow the SMILES beside them. *: point of attachment. Nle = CCCC[C@H](N)C(=O)O; For = O=C*

Legend:
[1] = biological target: T1, W190/N192 FPR (Homo sapiens, UniProt P21462, R190W); assay type: cell-based
[2] = biological target: T1, W190/N192 FPR; assay type: cell-based; remark: listed apart in the source
[3] = biological target: T2, R190/N192 FPR (Homo sapiens, UniProt P21462); assay: biochemical; assay type: biochemical
[4] = biological target: T3, R190/K192 FPR (Homo sapiens, UniProt P21462, N192K); assay: biochemical; assay type: binding
[5] = biological target: T3, R190/K192 FPR; assay type: cell-based
[6] = biological target: T1, W190/N192 FPR; assay: biochemical; assay type: biochemical
[7] = biological target: T3, R190/K192 FPR; assay: biochemical; assay type: biochemical
[8] = biological target: T1, W190/N192 FPR; assay: biochemical; assay type: binding
[9] = biological target: T2, R190/N192 FPR; assay: biochemical; assay type: binding
[10] = biological target: T3, R190/K192 FPR; assay type: cell-based; remark: listed apart in the source
[11] = biological target: T2, R190/N192 FPR; assay type: cell-based
[12] = biological target: T2, R190/N192 FPR; assay type: cell-based; remark: listed apart in the source
[13] = system: FIV; conditions: cited from earlier work
[14] = system: FPR; conditions: cited from earlier work
[15] = biological target: ETYIK-(Alexa Fluor)WPWWVWL (Human coronavirus 229E); assay: flow
[16] = biological target: Coronavirus 229E spike 36mer (Human coronavirus 229E); assay: flow
[17] = biological target: HIV-2 envelope 37mer (Human immunodeficiency virus 2); assay: flow
[18] = biological target: Coronavirus 229E spike 12mer (Human coronavirus 229E); assay: flow
[19] = biological target: Coronavirus OC43 spike 36mer (Human coronavirus OC43); assay: flow
[20] = biological target: SARS coronavirus spike 12mer (SARS coronavirus); assay: flow
[21] = biological target: reverse 229E peptide; assay: flow
[22] = biological target: MMWLL; assay: flow
[23] = biological target: Coronavirus 229E spike 7mer (Human coronavirus 229E); assay: flow
[24] = biological target: Coronavirus 229E spike 5mer (Human coronavirus 229E); assay: flow
[25] = biological target: Coronavirus 229E spike N-terminal 7mer (Human coronavirus 229E); assay: flow
[26] = biological target: HKU-1 coronavirus spike peptide (Human coronavirus HKU1); assay: flow
[27] = biological target: HIV-1 gp41 12mer (Human immunodeficiency virus 1); assay: flow

CC[C@H](C)[C@H](NC(=O)[C@H](Cc1ccc(O)cc1)NC(=O)[C@@H](NC(=O)[C@@H](N)CCC(=O)O)[C@@H](C)O)C(=O)N[C@@H](CCCCN)C(=O)N[C@@H](Cc1c[nH]c2ccccc12)C(=O)N1CCC[C@H]1C(=O)N[C@@H](Cc1c[nH]c2ccccc12)C(=O)N[C@@H](Cc1c[nH]c2ccccc12)C(=O)N[C@H](C(=O)N[C@@H](Cc1c[nH]c2ccccc12)C(=O)N[C@@H](CC(C)C)C(=O)O)C(C)C
inhibition of receptor downregulation in response to formyl-Nle–Leu–Phe [1]: 64 ± 6%
surface receptor downregulation [1]: did not cause surface receptor downregulation
inhibition of arrestin translocation in response to formyl-Nle–Leu–Phe [2]: 77 ± 10%
β-arrestin translocation [2]: did not cause translocation
EC50 [3]: 1600 ± 400 nM
stimulation of GTPγS binding [3]: neither ETYIKWPWWVWL nor MYVKWPWYVWL had any effect
Ki [4]: 370 ± 30 nM
inhibition of arrestin translocation in response to formyl-Nle–Leu–Phe [5]: 20 ± 9%
β-arrestin translocation [5]: did not cause translocation
EC50 [6]: 300 ± 120 nM
stimulation of GTPγS binding [6]: neither ETYIKWPWWVWL nor MYVKWPWYVWL had any effect
EC50 [7]: 1600 ± 440 nM
stimulation of GTPγS binding [7]: neither ETYIKWPWWVWL nor MYVKWPWYVWL had any effect
Ki ([8]; Ki (nM ± SEM) for binding of peptides to W190/N192 FPR): 270 ± 10 nM
Ki [9]: 533 ± 30 nM
inhibition of receptor downregulation in response to formyl-Nle–Leu–Phe [10]: 20 ± 2%
surface receptor downregulation [10]: did not cause surface receptor downregulation
inhibition of receptor downregulation in response to formyl-Nle–Leu–Phe [11]: 16 ± 2%
surface receptor downregulation [11]: did not cause surface receptor downregulation
inhibition of arrestin translocation in response to formyl-Nle–Leu–Phe [12]: 18 ± 4%
β-arrestin translocation [12]: did not cause translocation

QLQKWEDWVRWI
inhibition of FIV infection (potency) [13]: low nanomolar

CCCC[C@H](NC=O)C(=O)N[C@@H](CC(C)C)C(=O)N[C@@H](Cc1ccccc1)C(=O)O [Formyl-NleLeuPhe, Formyl-Nle–Leu–Phe, reference compound] (For-[Nle]-Leu-Phe-OH)
surface receptor downregulation [1]: 76 ± 3%
β-arrestin translocation [2]: caused β-arrestin translocation
stimulation of GTPγS binding [3]: stimulated GTPγS binding
fold higher affinity for R190/K192 than for W190/N192 [4]: ~3 fold
β-arrestin translocation [5]: caused β-arrestin translocation
stimulation of GTPγS binding [6]: stimulated GTPγS binding
stimulation of GTPγS binding [7]: stimulated GTPγS binding
fold reduction of affinity on substitution of R190 with W190 [8]: 2.5 fold
surface receptor downregulation [10]: 85 ± 0.4%
surface receptor downregulation [11]: 76 ± 1.2%
β-arrestin translocation [12]: caused β-arrestin translocation

WRWWWW
effect on FPR [14]: did not affect FPR

B1: Formyl peptide receptor (FPR R190/N192), P21462 (protein)
chain: METNSSLPTNISGGTPAVSAGYLFLDIITYLVFAVTFVLGVLGNGLVIWVAGFRMTHTVTTISYLNLAVADFCFTSTLPFFMVRKAMGGHWPFGWFLCKFVFTIVDINLFGSVFLIALIALDRCVCVLHPVWTQNHRTVSLAKKVIIGPWVMALLLTLPVIIRVTTVPGKTGTVACTFNFSPWTNDPKERINVAVAMLTVRGIIRFIIGFSAPMSIVAVSYGLIATKIHKQGLIKSSRPLRVLSFVAAAFFLCWSPYQVVALIATVRIRELLQGMYKEIGIAVDVTSALAFFNSCLNPMLYVFMGQDFRERLIHALPASLERALTEDSTQTSDTATNSTLPSAEVELQAK
Kd [15]: 121 nM
Ki [16]: 10 µM
Ki [17]: 15.7 µM
Ki [18]: 533 nM
Ki [19]: 850 nM
Ki [20]: 2050 nM
Ki [21]: > 50 µM
Ki [22]: 330 nM
Ki [23]: 600 nM
Ki [24]: 1000 nM
Ki [25]: > 260 µM
Ki [26]: 783 nM
Ki [27]: 1200 nM
